The values that follow are results of earlier work, collected in patent US10758505B2, “Therapeutic compositions and methods” (Innovus Pharmaceuticals, Inc., priority 2017, dated 2020).

One data set has as its target human CYP3A4 (Homo sapiens, UniProt P08684).
In a further data set the target is P-glycoprotein (Homo sapiens, UniProt P08183).
Sequence of P-glycoprotein (P08183 whole entry): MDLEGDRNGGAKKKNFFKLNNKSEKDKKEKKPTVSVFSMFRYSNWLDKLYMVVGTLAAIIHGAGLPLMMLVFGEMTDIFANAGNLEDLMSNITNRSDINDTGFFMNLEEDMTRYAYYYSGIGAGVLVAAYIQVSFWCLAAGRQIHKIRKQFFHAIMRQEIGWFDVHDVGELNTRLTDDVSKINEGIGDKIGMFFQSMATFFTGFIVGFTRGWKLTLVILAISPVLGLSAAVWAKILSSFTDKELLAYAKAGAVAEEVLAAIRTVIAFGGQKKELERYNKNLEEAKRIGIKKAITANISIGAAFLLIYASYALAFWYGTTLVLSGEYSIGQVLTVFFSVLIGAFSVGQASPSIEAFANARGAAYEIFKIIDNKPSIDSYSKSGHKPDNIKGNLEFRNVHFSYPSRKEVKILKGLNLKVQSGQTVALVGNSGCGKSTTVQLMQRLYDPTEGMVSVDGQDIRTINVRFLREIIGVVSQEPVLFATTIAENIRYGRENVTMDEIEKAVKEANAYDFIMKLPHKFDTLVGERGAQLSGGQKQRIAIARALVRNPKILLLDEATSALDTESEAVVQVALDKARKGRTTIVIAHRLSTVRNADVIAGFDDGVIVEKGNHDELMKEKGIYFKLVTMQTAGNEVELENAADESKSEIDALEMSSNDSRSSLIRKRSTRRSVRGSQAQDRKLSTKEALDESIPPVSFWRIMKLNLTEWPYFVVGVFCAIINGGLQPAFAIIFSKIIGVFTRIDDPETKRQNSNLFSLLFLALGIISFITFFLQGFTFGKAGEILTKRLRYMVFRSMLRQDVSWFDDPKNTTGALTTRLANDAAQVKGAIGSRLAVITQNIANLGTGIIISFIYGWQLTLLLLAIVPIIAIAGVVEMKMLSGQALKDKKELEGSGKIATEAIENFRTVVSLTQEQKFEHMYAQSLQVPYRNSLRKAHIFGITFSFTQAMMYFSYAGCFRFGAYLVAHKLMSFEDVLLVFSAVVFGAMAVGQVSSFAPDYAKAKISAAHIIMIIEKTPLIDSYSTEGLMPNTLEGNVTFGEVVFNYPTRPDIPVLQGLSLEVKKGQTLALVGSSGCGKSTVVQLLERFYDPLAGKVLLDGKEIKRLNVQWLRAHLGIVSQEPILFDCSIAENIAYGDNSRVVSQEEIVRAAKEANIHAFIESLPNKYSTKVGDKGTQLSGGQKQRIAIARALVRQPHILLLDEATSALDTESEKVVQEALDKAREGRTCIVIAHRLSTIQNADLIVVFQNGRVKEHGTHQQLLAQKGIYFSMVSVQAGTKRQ

Sequence of human CYP3A4 (P08684 whole entry): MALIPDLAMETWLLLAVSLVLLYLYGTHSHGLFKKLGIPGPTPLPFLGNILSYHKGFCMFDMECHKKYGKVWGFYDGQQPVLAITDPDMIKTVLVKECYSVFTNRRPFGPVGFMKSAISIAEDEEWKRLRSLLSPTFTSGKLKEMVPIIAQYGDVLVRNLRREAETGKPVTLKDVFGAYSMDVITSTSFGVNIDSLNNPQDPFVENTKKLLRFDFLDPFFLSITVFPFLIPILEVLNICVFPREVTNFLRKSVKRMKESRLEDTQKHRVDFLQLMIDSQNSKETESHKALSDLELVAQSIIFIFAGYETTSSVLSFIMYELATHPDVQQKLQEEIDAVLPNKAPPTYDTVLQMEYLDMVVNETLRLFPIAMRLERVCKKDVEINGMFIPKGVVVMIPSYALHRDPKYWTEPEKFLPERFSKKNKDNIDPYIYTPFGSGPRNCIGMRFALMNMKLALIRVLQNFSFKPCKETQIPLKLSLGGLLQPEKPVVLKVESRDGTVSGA

On to `O=C(/C=C/C=C/c1ccc2c(c1)OCO2)N1CCCCC1` [Bioperine®, (2E,4E)-5-(1,3-benzodioxol-5-yl)-1-(piperidin-1-yl)penta-2,4-dien-1-one], for which, on human CYP3A4, the “inhibition of human CYP3A4” value is “inhibits”. On P-glycoprotein, the “inhibition of P-glycoprotein” value is “inhibits”.
